Results published in ChEMBL document CHEMBL1201862, “PubChem BioAssay data set” (2004).
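A five-concentration, 48-hour dose response in 96-well plates underlies each endpoint, interpolated linearly between surrounding concentrations. GI50 is the concentration that inhibits growth by half.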 Calls of active or inactive are those of the source. Rule as the data show it: active = GI50 up to about 1.1 µM and inactive = higher.

Assays:
Assay in all cases: NCI-60 cell line screen, 48 h
SN12C = system: SN12C
SK-MEL-28 = system: SK-MEL-28
SNB-75 = system: SNB-75
NCI-H522 = system: NCI-H522
SF-539 = system: SF-539
UACC-257 = system: UACC-257
SW-620 = system: SW-620
DU-145 = system: DU-145
HCT-116 = system: HCT-116
SK-MEL-2 = system: SK-MEL-2
OVCAR-8 = system: OVCAR-8
COLO 205 = system: COLO 205
NCI-H460 = system: NCI-H460
NCI/ADR-RES = system: NCI/ADR-RES
T47D = system: T47D
HT-29 = system: HT-29
SR = system: SR
IGROV-1 = system: IGROV-1
UO-31 = system: UO-31
HCC 2998 = system: HCC 2998

Compound | GI50 (SN12C) | GI50 (SK-MEL-28) | GI50 (SNB-75) | GI50 (NCI-H522) | GI50 (SF-539) | GI50 (UACC-257) | GI50 (SW-620) | GI50 (DU-145) | GI50 (HCT-116) | GI50 (SK-MEL-2) | GI50 (OVCAR-8) | GI50 (COLO 205) | GI50 (NCI-H460) | GI50 (NCI/ADR-RES) | GI50 (T47D) | GI50 (HT-29) | GI50 (SR) | GI50 (IGROV-1) | GI50 (UO-31) | GI50 (HCC 2998)
c1ccc(CCCNc2nnnc3ccccc23)cc1 | > 100 µM (inactive) | > 100 µM (inactive) | > 100 µM (inactive) | 24.1 µM (inactive) | 57 µM (inactive) | 67.6 µM (inactive) | > 100 µM (inactive) | > 100 µM (inactive) | > 100 µM (inactive) | > 100 µM (inactive) | > 100 µM (inactive) | 62.5 µM (inactive) | > 100 µM (inactive) | 39.4 µM (inactive) | 23.2 µM (inactive) | > 100 µM (inactive) | 92.9 µM (inactive) | > 100 µM (inactive) |  | 
O=C(O)C(Cc1ccccc1-c1ccccc1)C(=O)O | > 100 µM (inactive) | > 100 µM (inactive) | > 100 µM (inactive) | > 100 µM (inactive) | > 100 µM (inactive) | > 100 µM (inactive) | > 100 µM (inactive) | > 100 µM (inactive) | > 100 µM (inactive) | > 100 µM (inactive) | > 100 µM (inactive) | > 100 µM (inactive) | > 100 µM (inactive) | > 100 µM (inactive) | > 100 µM (inactive) | > 100 µM (inactive) | > 100 µM (inactive) | > 100 µM (inactive) | > 100 µM (inactive) | 
O=C1C=CC2(O[C@H](c3ccccc3)[C@@H](c3ccccc3)O2)[C@H](Sc2ccccc2O)C1 | 0.204 µM (active) | 1.36 µM (inactive) | 3.28 µM (inactive) | 0.0532 µM (active) | 0.757 µM (active) | 0.658 µM (active) | 0.0824 µM (active) | 1.22 µM (inactive) | 0.122 µM (active) | 2.02 µM (inactive) | 0.105 µM (active) | 0.499 µM (active) | 2.13 µM (inactive) | 0.414 µM (active) | 0.785 µM (active) | 0.398 µM (active) |  | 0.281 µM (active) | 0.665 µM (active) | 0.454 µM (active)
CN(Cc1c[n+]([O-])c2nc(N)nc(N)c2n1)c1ccc(C(=O)NC23CC4CC(CC(C4)C2)C3)cc1 | > 100 µM (inactive) | 23.1 µM (inactive) | 20.2 µM (inactive) |  |  | > 100 µM (inactive) | > 100 µM (inactive) | > 100 µM (inactive) | > 100 µM (inactive) | > 100 µM (inactive) | > 100 µM (inactive) | > 100 µM (inactive) | > 100 µM (inactive) | > 100 µM (inactive) | 75.2 µM (inactive) |  | 28.8 µM (inactive) | 54.3 µM (inactive) | > 100 µM (inactive) | 
Cc1ccc(S(=O)(=O)N2CC2CCCCC=O)cc1 (stereo not given) | > 100 µM (inactive) | > 100 µM (inactive) | > 100 µM (inactive) | 72.8 µM (inactive) |  | > 100 µM (inactive) | 52.7 µM (inactive) | > 100 µM (inactive) | 57 µM (inactive) | > 100 µM (inactive) | > 100 µM (inactive) | > 100 µM (inactive) |  | > 100 µM (inactive) | > 100 µM (inactive) | 26.8 µM (inactive) | 17.1 µM (inactive) | 80.9 µM (inactive) | 85.5 µM (inactive) | 
CN(C)c1ccc(/C=C(\NC(=O)c2ccccc2)C(=O)NC(Cc2c[nH]c3ccccc23)C(=O)O)cc1 (stereo not given) | > 100 µM (inactive) | > 100 µM (inactive) | 0.226 µM (active) | 47.6 µM (inactive) | > 100 µM (inactive) | 69 µM (inactive) | > 100 µM (inactive) | > 100 µM (inactive) | > 100 µM (inactive) | > 100 µM (inactive) | > 100 µM (inactive) | > 100 µM (inactive) | > 100 µM (inactive) | > 100 µM (inactive) | > 100 µM (inactive) | > 100 µM (inactive) |  | > 100 µM (inactive) | > 100 µM (inactive) | > 100 µM (inactive)
CN(C)CCNCc1ccc2c(-c3ccccc3)nc3cc(Cl)c(Cl)cc3n12 | 9.93 µM (inactive) | 5.78 µM (inactive) | 7.46 µM (inactive) | 13.6 µM (inactive) | 7.35 µM (inactive) | 9.4 µM (inactive) | 8.83 µM (inactive) | 9.64 µM (inactive) | 7.74 µM (inactive) | 9.57 µM (inactive) | 11.1 µM (inactive) | 6.92 µM (inactive) | 9.68 µM (inactive) | 15.8 µM (inactive) | 4.94 µM (inactive) | 8.3 µM (inactive) |  | 7.59 µM (inactive) | 7.83 µM (inactive) | 2.33 µM (inactive)
COc1ccc(C(O)c2ccccn2)cc1 (stereo not given) | > 100 µM (inactive) | > 100 µM (inactive) | > 100 µM (inactive) | > 100 µM (inactive) | > 100 µM (inactive) | > 100 µM (inactive) | > 100 µM (inactive) | > 100 µM (inactive) | > 100 µM (inactive) | > 100 µM (inactive) | > 100 µM (inactive) | > 100 µM (inactive) | > 100 µM (inactive) | > 100 µM (inactive) | > 100 µM (inactive) | > 100 µM (inactive) | > 100 µM (inactive) | > 100 µM (inactive) |  | 
O=[N+]([O-])c1ccc2c3c1[C@@H]1O[C@@H]1c1cccc(c1-3)[C@@H]1O[C@H]21 | 2.71 µM (inactive) | 3.1 µM (inactive) | 5.68 µM (inactive) | 1.67 µM (inactive) | 2.02 µM (inactive) | 6.87 µM (inactive) | 2.72 µM (inactive) | 3.1 µM (inactive) | 2.42 µM (inactive) | 6.14 µM (inactive) | 2.04 µM (inactive) | 6.47 µM (inactive) |  | 4.91 µM (inactive) | 3.35 µM (inactive) | 3.48 µM (inactive) | 4.21 µM (inactive) | 1.24 µM (inactive) | 2.07 µM (inactive) | 
CC(=O)O[C@H]1C[C@H](O[C@H]2[C@@H](O)C[C@H](O[C@H]3[C@@H](O)C[C@H](O[C@H]4CC[C@@]5(C)[C@H](CC[C@@H]6[C@@H]5CC[C@]5(O)[C@@H](C7=CC(=O)OC7)CC[C@]65O)C4)O[C@@H]3C)O[C@@H]2C)O[C@H](C)[C@H]1O[C@@H]1O[C@H](CO)[C@@H](O)[C@H](O)[C@H]1O | 0.258 µM (active) | 1.5 µM (inactive) | 0.908 µM (active) | 0.0492 µM (active) | 0.185 µM (active) | 0.597 µM (active) | 0.407 µM (active) | 0.243 µM (active) | 0.243 µM (active) | 0.498 µM (active) | 0.452 µM (active) | 0.711 µM (active) | 0.106 µM (active) | 0.237 µM (active) | 0.553 µM (active) | 0.286 µM (active) |  | 0.356 µM (active) | 0.391 µM (active) | 1.52 µM (inactive)
NNS(=O)(=O)c1cc(C(=O)O)cc(C(=O)O)c1 | > 100 µM (inactive) | > 100 µM (inactive) |  | > 100 µM (inactive) | > 100 µM (inactive) | > 100 µM (inactive) | > 100 µM (inactive) | > 100 µM (inactive) | > 100 µM (inactive) | > 100 µM (inactive) | > 100 µM (inactive) | > 100 µM (inactive) | > 100 µM (inactive) | > 100 µM (inactive) | > 100 µM (inactive) | > 100 µM (inactive) | > 100 µM (inactive) | > 100 µM (inactive) | > 100 µM (inactive) | 
